Results on 17 molecules are retold here after patent US9562022B2 (priority 2009, dated 2017).

Counter-ions that a name gives are not always drawn.

The term melting point denotes the temperature of the solid-liquid transition.

Test system in the first series: not given
Experiment: not given
Settings: not given
In turn, `CC1=C(/C=C/C(=O)N2CCN(S(N)(=O)=O)CC2)C(C)(C)CCC1` (as salt: hydrochloride) displayed a melting point of 181 to 183 °C.

Another series relates to P23H opsin. The series can be described thus: Rhodopsin purification and regeneration (pigment formation from P23H opsin produced in the presence of compound). The conditions noted are these: P23H opsin treated with 20 μM compound during mutant protein production; relative to pigment formation with vehicle (DMSO) alone.
Take `CC1CCCC(C)(C)C1/C=C/C(=O)N1CCN(C(N)=O)CC1` (racemic) [Compound 71, (±)-4-((E)-3-((1,6-anti)-2,2,6-trimethylcyclohexyl)acryloyl)piperazine-1-carboxamide]: the “regeneration of 500 nm absorbing pigment upon treatment with retinal” value (from here on “regeneration”) is reported as “increase”.

Consider `CC1=C(/C=C/C(=O)N2CCCN(C(N)=O)CC2)C(C)(C)CCC1` [Compound 13, (E)-4-(3-(2,6,6-Trimethylcyclohex-1-enyl)acryloyl)-1,4-diazepane-1-carboxamide], for which the “regeneration” value is listed as “increase”.

Turning to `CC1=C(CCC(=O)N2CCN(C(N)=O)CC2)C(C)(C)CCC1` [Compound 51, 4-(3-(2,6,6-Trimethylcyclohex-1-enyl)propanoyl)piperazine-1-carboxamide], the “regeneration” value is given as “increase”.

Regarding `CC1=C(/C=C/C(=O)N2CCN(C(N)=O)[C@H](C)C2)C(C)(C)CCC1` [Compound 53, (R,E)-2-Methyl-4-(3-(2,6,6-trimethylcyclohex-1-enyl)acryloyl)piperazine-1-carboxamide], the “regeneration” value is reported as “increase”.

Take `C[C@H]1CCCC(C)(C)[C@@H]1CCC(=O)N1CCN(C(N)=O)CC1` [Compound 80, 4-(3-((1R,6S)-2,2,6-trimethylcyclohexyl)propanoyl)piperazine-1-carboxamide]: the “regeneration” value is given as “increase”.

Take `C#CC1CN(C(=O)/C=C/C2=C(C)CCCC2(C)C)CCN1C(N)=O` (centres unmarked) [Compound 106, (E)-2-Ethynyl-4-(3-(2,6,6-trimethylcyclohex-1-en-1-yl)acryloyl)piperazine-1-carboxamide]: the “regeneration” value is “increase”.

Consider `CC1=C(/C=C/C(=O)N2CCN(C(N)=S)CC2)C(C)(C)CCC1` [Compound 105, (E)-4-(3-(2,6,6-Trimethylcyclohex-1-en-1-yl)acryloyl)piperazine-1-carbothioamide], for which the “regeneration” value is “increase”.

Take `CC1=C(/C=C/C(=O)N2CCN(C(=O)NC(C)C)CC2)C(C)(C)CCC1` [Compound 37, (E)-N-Isopropyl-4-(3-(2,6,6-trimethylcyclohex-1-enyl)acryloyl)piperazine-1-carboxamide]: the “regeneration” value is listed as “increase”.

On to `CC1=C(/C=C/C(=O)N2CCN(C(N)=O)CC2)C(C)(C)CCC1` [Compound 33, (E)-4-(3-(2,6,6-Trimethylcyclohex-1-enyl)acryloyl)piperazine-1-carboxamide], for which the “regeneration” value is “increase”.

Consider `CC1=C(/C=C/C(=O)N2CCN(C(N)=O)[C@@H](C)C2)C(C)(C)CCC1` [Compound 52, (S,E)-2-Methyl-4-(3-(2,6,6-trimethylcyclohex-1-enyl)acryloyl)piperazine-1-carboxamide], for which the “regeneration” value was “increase”.

On to `C[C@H]1CCCC(C)(C)[C@@H]1/C=C/C(=O)N1CCN(C(N)=O)CC1` [Compound 73, (+)-4-((E)-3-((1S,6S)-2,2,6-trimethylcyclohexyl)acryloyl)piperazine-1-carboxamide], for which the “regeneration” value is “increase”.

Regarding `CC1=C(/C=C/C(=O)N2CCC(NC(N)=O)C2)C(C)(C)CCC1` (centres unmarked) [Compound 50, (E)-1-(1-(3-(2,6,6-Trimethylcyclohex-1-enyl)acryloyl)pyrrolidin-3-yl)urea], the “regeneration” value is “increase”.

Take `CC1=C(CNC(=O)N2CCN(C(N)=O)CC2)C(C)(C)CCC1` [Compound 55, N^1-((2,6,6-Trimethylcyclohex-1-en-1-yl)methyl)piperazine-1,4-dicarboxamide]: the “regeneration” value is “increase”.

Take `CC1=C(/C=C/C(=O)N2CCOCC2)C(C)(C)CCC1` [Compound 6, (E)-1-Morpholino-3-(2,6,6-trimethylcyclohex-1-enyl)prop-2-en-1-one]: the “regeneration” value is “increase”.

Turning to `[2H]C1([2H])CCC(C)(C)C(/C=C/C(=O)N2CCN(C(N)=O)CC2)=C1C` [Compound 63, (E)-4-(3-(3,3-Dideutero-2,6,6-trimethylcyclohex-1-en-1-yl)acryloyl)piperazine-1-carboxamide], the “regeneration” value was “increase”.

For `CC1=C(/C=C/C(=O)N2CC[C@@H](OC(N)=O)C2)C(C)(C)CCC1` [Compound 57, (R,E)-1-(3-(2,6,6-Trimethylcyclohex-1-en-1-yl)acryloyl)pyrrolidin-3-yl carbamate], the “regeneration” value is “increase”.
